Experimental data: US20230212549A1, “COMPOUNDS COMPRISING A […] LIGAND AND USE THEREOF” (priority 2021, published 2023)
Numbered stars: 1 amine (or outer) side, 2 acyl side, 3 side chain; on linkers, the order of the positions; unused ones are H or OH. Bridge positions count the residues as written; N and C are the ends. Square brackets hold non-standard residues; d marks the D form. Peptide text beside a SMILES is read from it. * marks the point of attachment. X13 = O=C(O)CN1CCN(CC(=O)O)CCN(CC(=O)N2CCN(Cc3cc(C[*:1])cc(C[*:2])c3)CC2)CCN(CC(=O)O)CC1; Pro(4,4-F2) = O=C(O)[C@@H]1CC(F)(F)CN1; mXylylene = c1cc(C[*:1])cc(C[*:2])c1; Hyp = O=C(O)[C@@H]1C[C@@H](O)CN1; Nphe = O=C(O)CNCc1ccccc1; Hexanoyl = CCCCCC(=O)*

Legend:
[1] = target: T1, FAP-expressing human WI-38 fibroblasts (Homo sapiens, UniProt Q12884); experiment: Competitive FACS binding assay
T1 construct: FAP-expressing human WI-38 fibroblasts (ECACC) were cultured in EMEM; host or cells: WI-38 human fibroblasts
T1 sequence (Q12884 whole entry): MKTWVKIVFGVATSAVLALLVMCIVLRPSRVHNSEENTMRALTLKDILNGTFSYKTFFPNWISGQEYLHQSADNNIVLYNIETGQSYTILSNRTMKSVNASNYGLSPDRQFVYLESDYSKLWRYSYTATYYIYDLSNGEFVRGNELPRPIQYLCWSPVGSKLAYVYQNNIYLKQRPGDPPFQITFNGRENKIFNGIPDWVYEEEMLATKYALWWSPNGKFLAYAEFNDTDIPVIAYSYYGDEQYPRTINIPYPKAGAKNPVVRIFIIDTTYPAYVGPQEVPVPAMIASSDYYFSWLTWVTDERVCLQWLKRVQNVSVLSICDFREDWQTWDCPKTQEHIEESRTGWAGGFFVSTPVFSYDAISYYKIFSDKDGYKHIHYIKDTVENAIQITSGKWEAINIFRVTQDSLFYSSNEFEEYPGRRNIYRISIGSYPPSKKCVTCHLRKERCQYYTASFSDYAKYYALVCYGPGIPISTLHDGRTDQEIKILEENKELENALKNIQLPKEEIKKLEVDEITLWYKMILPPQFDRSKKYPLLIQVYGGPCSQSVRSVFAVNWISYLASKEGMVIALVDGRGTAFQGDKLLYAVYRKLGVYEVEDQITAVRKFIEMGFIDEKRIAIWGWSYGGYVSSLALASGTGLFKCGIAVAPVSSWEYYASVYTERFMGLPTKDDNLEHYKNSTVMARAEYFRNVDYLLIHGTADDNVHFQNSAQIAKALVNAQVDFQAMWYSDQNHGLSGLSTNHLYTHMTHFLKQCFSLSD
Procedure: Cells were analyzed in an Attune NxT flow cytometer. […] […].
Cells were analyzed in an Attune NxT flow cytometer. […]

Human recombinant FAP = Human recombinant FAP (Homo sapiens, UniProt Q12884); experiment: FRET-based FAP protease activity assay; type: biochemical; set-up: purchased R&D systems 3715-SE; conditions: pIC50 Category (Activity), 37° C.
Human recombinant FAP, sequence (Q12884 whole entry): as above

[2] = FRET-based FAP protease activity assay, recombinant human FAP

| Compound | IC50 [1] | IC50 (Human recombinant FAP; [2]) | IC50 (Human recombinant FAP; FRET-peptide substrate) |
| --- | --- | --- | --- |
| CC(=O)N[C@@H](CCCC(=O)O)C(=O)N[C@H]1CSCc2cccc(c2)CSC[C@@H](C(N)=O)NC(=O)[C@H](Cc2ccccc2)NC(=O)[C@H](CCC(N)=O)NC(=O)[C@H]([C@@H](C)O)NC(=O)[C@@H]2CCCN2C(=O)[C@@H]2CCCN2C1=O [3BP-3764, Ac-Aad-[Cys(3MeBn)-Pro-Pro-Thr-Gln-Phe-Cys]-NH2] | > 1000 nM | > 1000 nM |  |
| CCCCNC(=O)N[C@H]1CSCc2cccc(c2)CSC[C@@H](C(=O)N[C@@H](CCCCNC(=O)C(CNCCN)CNCCN)CC(=O)O)NC(=O)[C@H](Cc2ccccc2)NC(=O)[C@H](CCC(N)=O)NC(=O)[C@H]([C@@H](C)O)NC(=O)[C@@H]2CCCN2C(=O)[C@@H]2CCCN2C1=O [3BP-4589, nBu-CAyl-[Cys(3MeBn)-Pro-Pro-Thr-Gln-Phe-Cys]-Bhk(N4Ac)—OH] | < 10 nM |  | < 10 nM |
| CCCCCC(=O)N[C@H]1CSCc2cccc(c2)CSC[C@@H](C(N)=O)NC(=O)[C@H](Cc2ccccc2)NC(=O)[C@H](CCC(=O)O)NC(=O)[C@H]([C@@H](C)O)NC(=O)[C@@H]2C[C@@H](O)CN2C(=O)[C@@H]2CCCN2C1=O [3BP-3366, Hex-[Cys(3MeBn)-Pro-Hyp-Thr-Glu-Phe-Cys]-NH2] (Hexanoyl-CP[Hyp]TEFC-NH2; linker 1-7 via mXylylene) | 10 to 79.4 nM | 10 to 79.4 nM |  |
| C=CCOC(=O)N[C@H]1CSCc2cc(CSCCNC(=O)CN3CCN(CC(=O)O)CCN(CC(=O)O)CCN(CC(=O)O)CC3)cc(c2)CSC[C@@H](C(=O)O)NC(=O)[C@H](Cc2ccccc2)NC(=O)[C@H](CCC(N)=O)NC(=O)[C@H]([C@@H](C)O)NC(=O)[C@@H]2CCCN2C(=O)[C@@H]2CCCN2C1=O [3BP-3915, Alloc-[Cys(tMeBn(DOTA-AET))-Pro-Pro-Thr-Gln-Phe-Cys]-OH] | 10 to 79.4 nM |  | 10 to 79.4 nM |
| CCCCCC(=O)N[C@H]1CSCc2cc(cc(CN3CCN(C(=O)CN4CCN(CC(=O)O)CCN(CC(=O)O)CCN(CC(=O)O)CC4)CC3)c2)CSC[C@@H](C(=O)N[C@@H](CC(=O)O)C(N)=O)NC(=O)[C@H](Cc2ccccc2)NC(=O)[C@H](C)NC(=O)[C@H]([C@@H](C)O)NC(=O)[C@@H]2CCCN2C(=O)[C@@H]2CCCN2C1=O [3BP-3739, Hex-[Cys(tMeBn(DOTA-PP))-Pro-Pro-Thr-Ala-Phe-Cys]-Asp-NH2] (Hexanoyl-CPPTAFCD-NH2; linker 1-7 via X13) | 100 to 794 nM | 100 to 794 nM |  |
| CCCCCC(=O)N[C@H]1CSCc2cccc(c2)CSC[C@@H](C(N)=O)NC(=O)[C@H](Cc2ccccc2)NC(=O)[C@H](CCC(=O)O)NC(=O)[C@H]([C@@H](C)O)NC(=O)[C@@H]2CC(F)(F)CN2C(=O)[C@@H]2CCCN2C1=O [3BP-3365, Hex-[Cys(3MeBn)-Pro-4Dfp-Thr-Glu-Phe-Cys]-NH2] (Hexanoyl-CP[Pro(4,4-F2)]TEFC-NH2; linker 1-7 via mXylylene) | > 1000 nM | 100 to 794 nM |  |
| CCCOCC(=O)N[C@H]1CSCc2cc(CSCCNC(=O)CN3CCN(CC(=O)O)CCN(CC(=O)O)CCN(CC(=O)O)CC3)cc(c2)CSC[C@@H](C(=O)O)NC(=O)[C@H](Cc2ccccc2)NC(=O)[C@H](CCC(N)=O)NC(=O)[C@H]([C@@H](C)O)NC(=O)[C@@H]2CCCN2C(=O)[C@@H]2CCCN2C1=O [3BP-3938, PrOAc-[Cys(tMeBn(DOTA-AET))-Pro-Pro-Thr-Gln-Phe-Cys]-OH] | < 10 nM |  | < 10 nM |
| C#CCCC(=O)N[C@H]1CSCc2cc(CSCCNC(=O)CN3CCN(CC(=O)O)CCN(CC(=O)O)CCN(CC(=O)O)CC3)cc(c2)CSC[C@@H](C(=O)O)NC(=O)[C@H](Cc2ccccc2)NC(=O)[C@H](CCC(N)=O)NC(=O)[C@H]([C@@H](C)O)NC(=O)[C@@H]2CCCN2C(=O)[C@@H]2CCCN2C1=O [3BP-3912, Pyn-[Cys(tMeBn(DOTA-AET))-Pro-Pro-Thr-Gln-Phe-Cys]-OH] | 10 to 79.4 nM |  | 100 to 794 nM |
| CCCCCC(=O)N[C@H]1CSCc2cccc(c2)CSC[C@@H](C(N)=O)NC(=O)[C@H](Cc2ccccc2)NC(=O)[C@H](CCC(N)=O)NC(=O)[C@H]([C@@H](C)O)NC(=O)[C@@H]2CCCN2C(=O)CN(Cc2ccccc2)C1=O [3BP-3748, Hex-[Cys(3MeBn)-Nphe-Pro-Thr-Gln-Phe-Cys]-NH2] (Hexanoyl-C[Nphe]PTQFC-NH2; linker 1-7 via mXylylene) | > 1000 nM | > 1000 nM |  |
